From patent US20240090503A1, “FUNGICIDAL OXADIAZOLES AND THEIR MIXTURES” (FMC CORPORATION, priority 2020, published 2024)
Marks after values point to notes of the source that are not given here.

Legend:
Assay type in all cases: in vivo
[1] = tested on: Phakopsora pachyrhizi (the causal agent of Asian soybean rust); test: Test A: preventive spray on soybean seedlings, Asian soybean rust, visual disease rating; settings: soybean seedlings
Procedure, shortened: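 Compound in acetone/water (50/50) with 250 ppm PEG400 sprayed to run-off on soybean seedlings; inoculated next day with Phakopsora pachyrhizi spores. Held 24 h at 22° C in saturated atmosphere, then 8 days in a 22° C growth chamber before visual rating as % disease control relative to controls.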

[2] = tested on: Zymoseptoria tritici (the causal agent of wheat leaf blotch); test: Test B: preventive spray on wheat seedlings, wheat leaf blotch, visual disease rating; settings: wheat seedlings
Source text: General protocol for preparing test suspensions for Tests A-D: the test compounds were first dissolved in acetone in an amount equal to 3% of the final volume and then suspended at the desired concentration (in ppm) in acetone and purified water (50/50 mix by volume) containing 250 ppm of the surfactant PEG400 (polyhydric alcohol esters). The resulting test suspensions were then used in Tests A-D.
The test suspension was sprayed to the point of run-off on wheat seedlings. The following day the seedlings were inoculated with a spore suspension of Zymoseptoria tritici (the causal agent of wheat leaf blotch) and incubated in a saturated atmosphere at 24° C. for 48 h, and then moved to a growth chamber at 20° C. for 17 days, after which time visual disease ratings were made.
The test results for Tests A-C presented in Table A below for compounds of Formula 1 illustrate the fungicidal activity of component (a) contributing to the plant disease control utility of compositions comprising component (a) in combination with component (b) according to the present invention. In the Table, a rating of 100 indicates 100% disease control and a rating of 0 indicates no disease control (relative to the controls). A dash (-) indicates the compound was not tested. The test suspensions were sprayed at the concentration listed in the column “Rate in ppm”, unless otherwise indicated. An asterisk “*” next to the rating indicates a 250 ppm test suspension was used, a double asterisk “**” next to the rating indicates a 100 ppm test suspension was used, and a triple asterisk “***” next to the rating indicates a 50 ppm test suspension was used.

[3] = tested on: Puccinia recondita f. sp. tritici (the causal agent of wheat leaf rust); test: Test C: preventive spray on wheat seedlings, wheat leaf rust, visual disease rating; settings: wheat seedlings
Procedure, shortened: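 Wheat seedlings sprayed to run-off with compound in acetone/water (50/50) with 250 ppm PEG400, then inoculated with spores the following day. After 24 h saturated humidity at 20° C. and 6 days in growth chamber at 20° C., disease rated visually as % control relative to untreated controls.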

[4] = test suspension 10 ppm, 100 = 100% disease control, 0 = no control
[5] = Phakopsora pachyrhizi, 216 h, test suspension 250 ppm
[6] = Zymoseptoria tritici, 456 h, test suspension 250 ppm
[7] = Puccinia recondita, 168 h, test suspension 250 ppm
[8] = 10 ppm test suspension, 100 = 100% disease control, 0 = no control
[9] = 250 ppm test suspension, 100 = 100% disease control

## Cc1cc(C)n(Cc2ccc(-c3noc(C(F)(F)F)n3)cc2)n1 [compound 145]
[1]; test suspension 250 ppm
  Test A disease control rating: 100%
[2]; test suspension 250 ppm
  Test B disease control rating: 0%
[3]; test suspension 250 ppm
  Test C disease control rating: 100%

## ON=Cc1cnn(Cc2ccc(-c3noc(C(F)(F)F)n3)cc2)c1 (mixture of isomers) [compound 20]
[1]; test suspension 250 ppm
  Test A disease control rating: 100%
[2]; test suspension 250 ppm
  Test B disease control rating: 99%
[3]; test suspension 250 ppm
  Test C disease control rating: 100%

## CCOC(=O)c1cnn(C(C)c2ccc(-c3noc(C(F)(F)F)n3)s2)c1 (stereo not drawn) [Compound 192]
[1]; [4]
  Test A disease control rating: 100%
[2]; test suspension 250 ppm
  Test B disease control rating: 99* %
[3]; test suspension 10 ppm
  Test C disease control rating: 100%

## COC(=O)c1ccc(COc2ccc(-c3noc(C(F)(F)F)n3)cc2)s1 [compound 317]
[1]; [4]
  Test A disease control rating: 0%
[2]; test suspension 250 ppm
  Test B disease control rating: 54* %
[3]; test suspension 10 ppm
  Test C disease control rating: 0%

## O=C1c2ccccc2C(=O)N1Cc1ccc(-c2noc(C(F)(F)F)n2)cc1 [Compound 90, 2-[[4-[5-(trifluoromethyl)-1,2,4-oxadiazol-3-yl]phenyl]methyl]-1H-isoindole-1,3(2H)-dione]
[1]; [5]
  pest or weed control at 250 µg/mL: 100%
[2]; [6]
  pest or weed control at 250 µg/mL: 33%
[3]; [7]
  pest or weed control at 250 µg/mL: 99%

## O=C(c1coc(Cc2ccc(-c3noc(C(F)(F)F)n3)cc2)n1)N1CCC(F)(F)C1 [Compound 402, (3,3-difluoro-1-pyrrolidinyl)[2-[[4-[5-(trifluoromethyl)-1,2,4-oxadiazol-3-yl]phenyl]methyl]-4-oxazolyl]methanone]
[1]; Phakopsora pachyrhizi, 216 h, 10 ppm test suspension, 100 = 100% disease control, 0 = no control
  pest or weed control at 10 ppm: 100%
[2]; Zymoseptoria tritici, 456 h, 250 ppm test suspension, 100 = 100% disease control
  pest or weed control at 250 ppm: 96%
[3]; Puccinia recondita, 168 h, 10 ppm test suspension, 100 = 100% disease control, 0 = no control
  pest or weed control at 10 ppm: 90%

## O=C(NCC(F)(F)C(F)(F)F)c1coc(Cc2ccc(-c3noc(C(F)(F)F)n3)cc2)n1 [compound 328]
[1]; [4]
  Test A disease control rating: 100%
[2]; test suspension 250 ppm
  Test B disease control rating: 0* %
[3]; test suspension 10 ppm
  Test C disease control rating: 100%

## O=C(NCC1CC1)c1coc(Cc2ccc(-c3noc(C(F)(F)F)n3)cc2)n1 [compound 327]
[1]; [4]
  Test A disease control rating: 100%
[2]; test suspension 250 ppm
  Test B disease control rating: 94* %
[3]; test suspension 10 ppm
  Test C disease control rating: 100%

## N#CC1(NC(=O)c2coc(Cc3ccc(-c4noc(C(F)(F)F)n4)cc3)n2)CC1 [compound 231]
[1]; [4]
  Test A disease control rating: 100%
[2]; test suspension 250 ppm
  Test B disease control rating: 95* %
[3]; test suspension 10 ppm
  Test C disease control rating: 97%

## O=C(NCCn1cccn1)c1cnn(COc2ccc(-c3noc(C(F)(F)F)n3)cc2)c1 [compound 215]
[1]; [4]
  Test A disease control rating: 99%
[2]; test suspension 250 ppm
  Test B disease control rating: 90* %
[3]; test suspension 10 ppm
  Test C disease control rating: 74%

## N#CCNC(=O)c1cccc(Cc2ccc(-c3noc(C(F)(F)F)n3)cc2)c1 [compound 285]
[1]; [4]
  Test A disease control rating: 100%
[2]; test suspension 250 ppm
  Test B disease control rating: 94* %
[3]; test suspension 10 ppm
  Test C disease control rating: 97%

## O=c1oc2ccccc2n1Cc1ccc(-c2noc(C(F)(F)F)n2)cc1 [compound 118]
[1]; test suspension 250 ppm
  Test A disease control rating: 100%
[2]; test suspension 250 ppm
  Test B disease control rating: 0%
[3]; test suspension 250 ppm
  Test C disease control rating: 98%

## CCOC(=O)c1cnn(Cc2ccc(-c3noc(C(F)(F)F)n3)cc2)c1 [Compound 83, ethyl 1-[[4-[5-(trifluoromethyl)-1,2,4-oxadiazol-3-yl]phenyl]methyl]-1H-pyrazole-4-carboxylate]
[1]; [5]
  pest or weed control at 250 µg/mL: 100%
[2]; [6]
  pest or weed control at 250 µg/mL: 79%
[3]; [7]
  pest or weed control at 250 µg/mL: 100%

## COCCOC(=O)c1cnn(Cc2ccc(-c3noc(C(F)(F)F)n3)cc2)c1 [compound 59]
[1]; [4]
  Test A disease control rating: 100%
[2]; test suspension 100 ppm (** next to rating)
  Test B disease control rating: 58** %
[3]; test suspension 10 ppm
  Test C disease control rating: 100%

## CCOC(=O)c1cnn(Cc2ccc(-c3noc(C(F)(F)F)n3)o2)c1 [compound 210]
[1]; test suspension 50 ppm
  Test A disease control rating: 100%
[2]; test suspension 250 ppm
  Test B disease control rating: 63* %
[3]; test suspension 50 ppm
  Test C disease control rating: 99%

## CCNC(=O)C1=NOC(Cc2ccc(-c3noc(C(F)(F)F)n3)cc2)C1 (stereo not drawn) [compound 175]
[1]; test suspension 255 ppm
  Test A disease control rating: 100%
[2]; test suspension 255 ppm
  Test B disease control rating: 95%
[3]; test suspension 255 ppm
  Test C disease control rating: 100%

## O=C(c1coc(Cc2ccc(-c3noc(C(F)(F)F)n3)cc2)n1)N1CCC(F)(F)CC1 [compound 228]
[1]; [4]
  Test A disease control rating: 100%
[2]; test suspension 250 ppm
  Test B disease control rating: 99* %
[3]; test suspension 10 ppm
  Test C disease control rating: 79%

## C#CCNC(=O)C1=NOC(Cc2ccc(-c3noc(C(F)(F)F)n3)cc2)C1 (stereo not drawn) [compound 176]
[1]; test suspension 250 ppm
  Test A disease control rating: 100%
[2]; test suspension 250 ppm
  Test B disease control rating: 92%
[3]; test suspension 250 ppm
  Test C disease control rating: 100%

## O=C(OCC1CC1)c1cnn(COc2ccc(-c3noc(C(F)(F)F)n3)cc2)c1 [compound 216]
[1]; [4]
  Test A disease control rating: 100%
[2]; test suspension 250 ppm
  Test B disease control rating: 9* %
[3]; test suspension 10 ppm
  Test C disease control rating: 74%

## FC(F)(F)c1nc(-c2ccc(Cn3ccc(-c4ccccc4)n3)cc2)no1 [Compound 85]
[1]; test suspension 50 ppm
  Test A disease control rating: 100*** %
[2]; test suspension 250 ppm
  Test B disease control rating: 9%
[3]; test suspension 250 ppm
  Test C disease control rating: 100%

## N#CC(Nc1ccccc1)c1ccc(-c2noc(C(F)(F)F)n2)cc1 (stereo not drawn) [Compound 13, α-(phenylamino)-4-[5-(trifluoromethyl)-1,2,4-oxadiazol-3-yl]benzeneacetonitrile]
[1]; [5]
  pest or weed control at 250 µg/mL: 100%
[2]; [6]
  pest or weed control at 250 µg/mL: 85%
[3]; [7]
  pest or weed control at 250 µg/mL: 100%

## O=C(NCCC(F)(F)F)c1coc(COc2ccc(-c3noc(C(F)(F)F)n3)cc2)n1 [compound 467]
[1]; [8]
  Test A disease control rating: 97%
[2]; [9]
  Test B disease control rating: 6* %
[3]; [8]
  Test C disease control rating: 68%

## CC(C)COC(=O)c1coc(Cc2ccc(-c3noc(C(F)(F)F)n3)cc2)n1 [compound 335]
[1]; [4]
  Test A disease control rating: 100%
[2]; test suspension 250 ppm
  Test B disease control rating: 73* %
[3]; test suspension 10 ppm
  Test C disease control rating: 94%

## CCc1nn(Cc2ccc(-c3noc(C(F)(F)F)n3)cc2)c(=O)n1C [compound 235]
[1]; test suspension 250 ppm
  Test A disease control rating: 100%
[2]; test suspension 250 ppm
  Test B disease control rating: 87%
[3]; test suspension 250 ppm
  Test C disease control rating: 100%

## N#Cc1cn(Cc2ccc(-c3noc(C(F)(F)F)n3)cc2)c2ccccc12 [compound 129]
[1]; test suspension 260 ppm
  Test A disease control rating: 100%
[2]; test suspension 260 ppm
  Test B disease control rating: 0%
[3]; test suspension 260 ppm
  Test C disease control rating: 89%

## FC(F)(F)c1nc(-c2ccc(CN3CCC4(CC3)OCCO4)cc2)no1 [compound 149]
[1]; test suspension 260 ppm
  Test A disease control rating: 100%
[2]; test suspension 260 ppm
  Test B disease control rating: 72%
[3]; test suspension 260 ppm
  Test C disease control rating: 100%

## C=CCOC(=O)c1coc(Cc2ccc(-c3noc(C(F)(F)F)n3)cc2)n1 [compound 334]
[1]; [4]
  Test A disease control rating: 99%
[2]; test suspension 250 ppm
  Test B disease control rating: 92* %
[3]; test suspension 10 ppm
  Test C disease control rating: 86%

## FC(F)(F)c1nc(-c2ccc(OCc3cn4cccnc4n3)cc2)no1 [compound 319]
[1]; [4]
  Test A disease control rating: 97%
[2]; test suspension 250 ppm
  Test B disease control rating: 33* %
[3]; test suspension 10 ppm
  Test C disease control rating: 0%

## FC(F)(F)c1nc(-c2ccc(Cn3ccc(-c4ccccc4Cl)n3)cc2)no1 [compound 142]
[1]; test suspension 250 ppm
  Test A disease control rating: 100%
[2]; test suspension 250 ppm
  Test B disease control rating: 57%
[3]; test suspension 250 ppm
  Test C disease control rating: 100%

## NC(=O)c1coc(Cc2ccc(-c3noc(C(F)(F)F)n3)cc2)n1 [compound 254]
[1]; [4]
  Test A disease control rating: 100%
[2]; test suspension 250 ppm
  Test B disease control rating: 70* %
[3]; test suspension 10 ppm
  Test C disease control rating: 100%

## CCOC(=O)c1cnn(Cc2cccc(-c3noc(C(F)(F)F)n3)c2)c1 [compound 276]
[1]; Phakopsora pachyrhizi, 216 h, test suspension 50 ppm
  pest or weed control at 50 µg/mL: 100%
[2]; [6]
  pest or weed control at 250 µg/mL: 35%
[3]; Puccinia recondita, 168 h, test suspension 50 ppm
  pest or weed control at 50 µg/mL: 80%

## COCCNC(=O)c1csc(COc2ccc(-c3noc(C(F)(F)F)n3)cc2)n1 [compound 469]
[1]; [8]
  Test A disease control rating: 96%
[2]; [9]
  Test B disease control rating: 65* %
[3]; [8]
  Test C disease control rating: 86%

## CNC(=O)C1=NOC(Cc2ccc(-c3noc(C(F)(F)F)n3)cc2)C1 (stereo not drawn) [compound 165]
[1]; test suspension 260 ppm
  Test A disease control rating: 100%
[2]; test suspension 260 ppm
  Test B disease control rating: 95%
[3]; test suspension 260 ppm
  Test C disease control rating: 100%

## FC(F)(F)c1nc(-c2cnn(CCCn3cc(-c4noc(C(F)(F)F)n4)cn3)c2)no1 [compound 326]
[1]; test suspension 250 ppm
  Test A disease control rating: 84%
[2]; test suspension 250 ppm
  Test B disease control rating: 1* %
[3]; test suspension 250 ppm
  Test C disease control rating: 67%
